# Entries after “also recorded” stand apart in the source; their conditions may differ. Square brackets hold non-standard residues; d marks the D form. Peptide text beside a SMILES is read from it. pGlu = O=C1CC[C@@H](C(=O)O)N1
# Legend:
# [1] = Peptide stability in serum and in culture medium (Western blot, MALDI TOF); type: in vitro ADME; details: human, serum (undiluted, of an ovarian cancer patient), 37° C.
# Description: FIGS. 6A-6B. Stability of [DLys6]GnRH-4EBP1 peptide. Biotinylated peptide was added to McCoys' 5A medium containing 10% fetal bovine serum (FBS), and to human serum. Samples were immediately withdrawn (0 hours). The remaining mixtures were incubated at 37° C., and samples taken thereafter at 1, 3, 6, 12 and 24 hours. In (FIG. 6A), samples were analyzed by Western blot using horseradish peroxidase-conjugated strepatavidin. In (FIG. 6B), samples of peptide incubated in serum for 0, 12 and 24 hours were analyzed by Matrix Assisted Laser Desorption Ionization-Time of Flight (MALDI TOF) mass spectrometry. Peaks corresponding to intact peptide (mass: 3990) are indicated. Peaks of 1256, 1684 and 3384 in mass are likely to represent degradation products of the peptide.
# Peptide stability studies. Biotinylated peptide (7 micrograms) was mixed with McCoys' 5A medium containing 10% FBS in a final volume of 140 microliters. A sample of 20 microliters was immediately removed and frozen. The remaining mixture was incubated at 37° C., and 20 microliters samples taken thereafter at 1, 3, 6, 12 and 24 hours. […] Samples were analyzed by Western blot using horseradish peroxidase-conjugated strepatavidin, and by MALDI TOF mass spectrometry using an Applied Biosystems 4700 Proteomic Analyzer.
# ES-2-GFP cells = assay: Mouse i.p. xenograft model of epithelial ovarian cancer; type: in vivo; details: for Deaths (died before completing treatment regimen) / Drop-outs (euthanized prior to completion due to morbidity related to ascites accumulation): of 11 mice per group
# Description: FIGS. 4A-4C. Anti-tumor activity of [DLys6]GnRH-4EBP1-WT peptide in a xenograft model of EOC. Female nude mice were inoculated i.p. with one million ES-2-GFP cells. At Day 9 after tumor cell inoculation, one group of mice (n=5) was sacrificed (pre-treatment). At Day 9, other groups of mice were administered by i.p. injection with saline (n=11), [DLys6]GnRH (n=11) or [DLys6]GnRH-4EBP1-WT (n=11) at a dose of 3.0 nanomoles per gram body weight Saline or peptide was administered every 2 days thereafter for 11 days (6 doses in total), and mice were sacrificed on Day 20. (FIG. 4A) Visualization under a fluorescence stereoscope of i.p. tumors in pre-treatment mice (at Day 9) including implants on the omentum (ome), and in mice treated with saline, with agonist alone and with [DLys6]GnRH-4EBP1-WT (at Day 20). (FIG. 4B) Hematoxylin eosin-stained sections of tissues of pre-treatment mice (at Day 9) and of saline- and peptide-treated mice (at Day 20). Tumors attached to the omentum extensively involved the pancreas in saline- and agonist-treated mice. Also shown are tumors attached to the broad ligament and mesentery. Bar, 200 micrometers. (FIG. 4C) Quantification of i.p. tumor burden in pre-treatment and treated mice that completed the regimen, expressed as the average percent of area of fluorescence within the abdominal cavity in captured images, and volume of ascites. Median values of tumor burden and ascites volume for each group and statistical significance of differences between groups are indicated.
# (§1) Animal Studies. Animal studies were approved by the Institutional Animal Care and Use Committee. The ES-2 cell line stably expressing enhanced green fluorescent protein (ES-2-GFP) has been described in previous work (Hara et al., 2007). Four-week-old female nude mice were inoculated i.p. at one site in the lower abdomen with 10^6 ES-2-GFP cells. At Day 9 after tumor cell inoculation, one group of mice (n=5) were killed by CO2 asphyxiation. At Day 9, other groups of mice were administered by i.p. injection with 200 microliters of phosphate-buffered saline (PBS) (n=11), [DLys6]GnRH (n=11) or [DLys6]GnRH-4EBP1-WT peptide (n=11) at a dose of 3.0 nanomoles per gram body weight. Peptides were suspended in PBS and administered at a volume of 200 microliters. PBS or peptide was administered every 2 days thereafter for 11 days (6 doses in total). Mice were sacrificed on Day 20, and ascites harvested. Tumors were visualized under a Leica MZML III fluorescence stereomicroscope equipped with mercury lamp power supply and green fluorescent protein (GFP) filter set. Tumor burden was quantified by measuring areas of fluorescence signals within the abdominal cavity in captured images by using Image Pro Plus 5.0 software (Media Cybernetics, Bethesda, Md.). Slides of paraffin-embedded tissues collected from mice were stained with hematoxylin-eosin. TUNEL-staining of tissue sections was performed using the in situ cell death detection kit (Roche).
# To determine the efficacy of [DLys6]GnRH-4EBP1-WT peptide in vivo, a mouse i.p. xenograft model was used that was established from an ES-2 cell line stably expressing GFP (Hara et al., 2007). This model mimics the typical behavior of epithelial ovarian cancer, including i.p. dissemination and ascites formation. This example comprised three treatment groups of mice i) saline, ii) [DLys6]GnRH agonist, and iii) [DLys6]GnRH-4EBP1-WT, where sample size of each group was n=11. The first dose of peptide or saline was administered i.p. to mice at Day 9 after tumor cell inoculation. At Day 9, no ascites had yet formed but tumors had established on the omentum, broad ligament and mesentery which are common sites of ovarian cancer cell attachment (FIGS. 4A,B). A schedule in which peptide was administered every 2 days was chosen, based on the studies of peptide stability in serum (FIG. 6).
# Based on studies of other agonist conjugates in xenograft models (19-21), a peptide dose of 3.0 nanomoles per gram body weight was used. […]
# [2] = Tolerability in xenograft mice: observation, histology and TUNEL-staining of tissues; type: in vivo
# Excerpt: FIGS. 11A-11B. TUNEL-staining of tissues of saline- and peptide-treated mice. […] Shown are normal tissues of the brain, heart, lung, liver, breast, pancreas and ovary, and tumor implants on the omentum. Bar, 60 micrometers. Pancreatic and ovarian sections show normal pancreatic (P) and ovarian (O) tissues plus adjacent tumor (T). Also shown are normal tissues of the pituitary and bone marrow. Bar, 20 micrometers
# as §1
# luteinizing hormone (LH) = assay: Assay of serum LH levels by radioimmunoassay; details: serum collected at end of regimen (Day 20)
# [3] = Mouse serum antibody assays; type: in vivo, mice; details: serum 1:100 dilution
# Description: FIGS. 12A-12C. Serum luteinizing hormone (LH) levels and serum antibody reactivity.
# Mouse serum antibody assays. Wells in 96-well plates were coated with 50 nanograms of [DLys6]GnRH-4EBP1-WT peptide or with 100 nanograms of ES-2 cell lysate. Serum of saline- and peptide-treated mice (1:100 dilution) was incubated in wells for 2 hours at room temperature. Bound IgG was detected using horseradish peroxidase-conjugated goat anti-mouse IgG, and measured at an optimal density of 450 nm.
smiles,measurement,setting,value
CC[C@H](C)[C@H](NC(=O)[C@H](CCCNC(=N)N)NC(=O)[C@@H](NC(=O)CNC(=O)CNC(=O)[C@@H]1CCCN1C(=O)[C@H](CCCNC(=N)N)NC(=O)[C@H](CC(C)C)NC(=O)[C@@H](CCCCN)NC(=O)[C@H](Cc1ccc(O)cc1)NC(=O)[C@H](CO)NC(=O)[C@H](Cc1c[nH]c2ccccc12)NC(=O)[C@H](Cc1c[nH]cn1)NC(=O)[C@@H]1CCC(=O)N1)[C@@H](C)O)C(=O)N[C@H](C(=O)N[C@@H](Cc1ccc(O)cc1)C(=O)N[C@@H](CC(=O)O)C(=O)N[C@@H](CCCNC(=N)N)C(=O)N[C@@H](CCCCN)C(=O)N[C@@H](Cc1ccccc1)C(=O)N[C@@H](CC(C)C)C(=O)N[C@@H](CCSC)C(=O)N[C@@H](CCC(=O)O)C(=O)N[C@@H](CS)C(=O)N[C@@H](CCCNC(=N)N)C(=O)N[C@@H](CC(N)=O)C(=O)N[C@@H](CO)C(=O)N1CCC[C@H]1C(=O)N[C@H](C(=O)N[C@H](C(=O)O)[C@@H](C)O)C(C)C)[C@@H](C)CC [[DLys6]GnRH-4EBP1-WT] ([pGlu]HWSY[dK]LRPGGTRIIYDRKFLMECRNSPVT-OH),half-life,[1],300 to 360 min
same,"Mice euthanized, day","ES-2-GFP cells; drop-out mice, individual animals","n = 1, day 15; also recorded: n = 1, day 17"
same,day of death before completing treatment regimen,"ES-2-GFP cells; mouse, in vivo",19 days
same,Deaths (died before completing treatment regimen),ES-2-GFP cells,1
same,Drop-outs (euthanized prior to completion due to morbidity related to ascites accumulation),ES-2-GFP cells,2
same,Deaths (died before completing treatment regimen),ES-2-GFP cells; listed as [DLys6]GnRH-4EBP-WT,one
same,Drop-outs (euthanized prior to completion due to morbidity related to ascites accumulation),ES-2-GFP cells; listed as [DLys6]GnRH-4EBP-WT,two
same,"TUNEL-positive cells in other normal tissues (brain, heart, lung and bone marrow)",[2]; Day 20,not detected
same,TUNEL-staining in ovaries,[2]; Day 20,some staining was observed
same,TUNEL-staining of cells of the liver and pancreas,[2]; Day 20,TUNEL-negative
same,TUNEL-staining in breast and pituitary tissues,"[2]; Day 20, tissues that express GnRH-RI",No TUNEL-staining was detected
same,serum LH levels compared with saline-treated mice,luteinizing hormone (LH),not significantly different
same,mice with antibody reactivity to [DLys6]GnRH-4EBP1-WT at least two standard deviations above mean background in saline-treated mice,[3],2 of 8

# — US20110319338A1, “PEPTIDES THAT BIND EUKARYOTIC TRANSLATION INITIATION FACTOR 4E” (The Board of Regents of the University of Texas System, priority 2008, published 2011)
